Test results from the NIST ThermoML archive (doi:10.1021/je300632p).

Assay: xn = mol fraction of the nth substance listed
Settings: 101 kPa, Liquid; for viscosity: Falling or rolling sphere viscometry; for mass density: Vibrating tube method

CCCCO [butan-1-ol] + CCO
Settings | mass density [kg/m3] | viscosity [mPa·s]
293.15 K, x2 = 0 | 809.02 | 3.066
293.15 K, x2 = 0.1 | 807.8 | 2.693
293.15 K, x2 = 0.2 | 806.38 | 2.494
293.15 K, x2 = 0.3 | 804.85 | 2.242
293.15 K, x2 = 0.4 | 803.63 | 2.048
293.15 K, x2 = 0.501 | 801.61 | 1.897
293.15 K, x2 = 0.602 | 799.54 | 1.725
293.15 K, x2 = 0.701 | 797.38 | 1.574
293.15 K, x2 = 0.801 | 795.11 | 1.445
293.15 K, x2 = 0.9 | 792.58 | 1.301
298.15 K, x2 = 0 | 805.24 | 2.534
298.15 K, x2 = 0.1 | 803.98 | 2.376
298.15 K, x2 = 0.2 | 802.53 | 2.214
298.15 K, x2 = 0.3 | 800.97 | 1.993
298.15 K, x2 = 0.4 | 799.71 | 1.826
298.15 K, x2 = 0.501 | 797.65 | 1.705
298.15 K, x2 = 0.602 | 795.54 | 1.55
298.15 K, x2 = 0.701 | 793.33 | 1.414
298.15 K, x2 = 0.801 | 790.98 | 1.302
298.15 K, x2 = 0.9 | 788.39 | 1.18
303.15 K, x2 = 0 | 801.42 | 2.234
303.15 K, x2 = 0.1 | 800.13 | 2.103
303.15 K, x2 = 0.2 | 798.65 | 1.967
303.15 K, x2 = 0.3 | 797.06 | 1.777
303.15 K, x2 = 0.4 | 795.75 | 1.633
303.15 K, x2 = 0.501 | 793.66 | 1.533
303.15 K, x2 = 0.602 | 791.5 | 1.397
303.15 K, x2 = 0.701 | 789.23 | 1.279
303.15 K, x2 = 0.801 | 786.82 | 1.184
303.15 K, x2 = 0.9 | 784.17 | 1.072
308.15 K, x2 = 0 | 797.57 | 1.978
308.15 K, x2 = 0.1 | 796.25 | 1.868
308.15 K, x2 = 0.2 | 794.74 | 1.754
308.15 K, x2 = 0.3 | 793.12 | 1.591
308.15 K, x2 = 0.4 | 791.76 | 1.465
308.15 K, x2 = 0.501 | 789.63 | 1.381
308.15 K, x2 = 0.602 | 787.42 | 1.262
308.15 K, x2 = 0.701 | 785.1 | 1.159
308.15 K, x2 = 0.801 | 782.64 | 1.076
308.15 K, x2 = 0.9 | 779.92 | 0.977
313.15 K, x2 = 0 | 793.68 | 1.756
313.15 K, x2 = 0.1 | 792.33 | 1.664
313.15 K, x2 = 0.2 | 790.79 | 1.569
313.15 K, x2 = 0.3 | 789.13 | 1.427
313.15 K, x2 = 0.4 | 787.74 | 1.318
313.15 K, x2 = 0.501 | 785.57 | 1.246
313.15 K, x2 = 0.602 | 783.31 | 1.142
313.15 K, x2 = 0.701 | 780.94 | 1.052
313.15 K, x2 = 0.801 | 778.41 | 0.98
313.15 K, x2 = 0.9 | 775.63 | 0.892
318.15 K, x2 = 0 | 789.75 | 1.564
318.15 K, x2 = 0.1 | 788.37 | 1.487
318.15 K, x2 = 0.2 | 786.8 | 1.407
318.15 K, x2 = 0.3 | 785.11 | 1.283
318.15 K, x2 = 0.4 | 783.67 | 1.189
318.15 K, x2 = 0.501 | 781.46 | 1.127
318.15 K, x2 = 0.602 | 779.15 | 1.037
318.15 K, x2 = 0.701 | 776.73 | 0.957
318.15 K, x2 = 0.801 | 774.14 | 0.895
318.15 K, x2 = 0.9 | 771.28 | 0.815
323.15 K, x2 = 0 | 785.78 | 1.397
323.15 K, x2 = 0.1 | 784.36 | 1.333
323.15 K, x2 = 0.2 | 782.76 | 1.265
323.15 K, x2 = 0.3 | 781.03 | 1.158
323.15 K, x2 = 0.4 | 779.54 | 1.074
323.15 K, x2 = 0.501 | 777.29 | 1.024
323.15 K, x2 = 0.602 | 774.95 | 0.943
323.15 K, x2 = 0.701 | 772.47 | 0.874
323.15 K, x2 = 0.801 | 769.82 | 0.817
323.15 K, x2 = 0.9 | 766.89 | 0.748
328.15 K, x2 = 0 | 781.75 | 1.252
328.15 K, x2 = 0.1 | 780.31 | 1.199
328.15 K, x2 = 0.2 | 778.67 | 1.141
328.15 K, x2 = 0.3 | 776.91 | 1.047
328.15 K, x2 = 0.4 | 775.38 | 0.974
328.15 K, x2 = 0.501 | 773.09 | 0.93
328.15 K, x2 = 0.602 | 770.69 | 0.86
328.15 K, x2 = 0.701 | 768.15 | 0.798
328.15 K, x2 = 0.801 | 765.44 | 0.749
328.15 K, x2 = 0.9 | 762.45 | 0.686

CCO [ethanol] + CCCCCO
x1 = 1
Settings | mass density [kg/m3] | viscosity [mPa·s]
293.15 K | 790.13 | 1.151
298.15 K | 785.86 | 1.069
303.15 K | 781.56 | 0.973
308.15 K | 777.23 | 0.888
313.15 K | 772.86 | 0.813
318.15 K | 768.44 | 0.755
323.15 K | 763.97 | 0.684
328.15 K | 759.44 | 0.63
